Measured values reported in patent publication US11214594B2, “Antimicrobial peptide having synergistic antibacterial effect with antibiotics on multidrug resistant bacteria, and use thereof” (priority 2016, dated 2022).
≈ marks a conversion by molar mass, not a printed value. Where a SMILES comes first, the peptide text is derived from it. [ ]: non-standard residue; d: D form.

Key:
E. coli [1] = assay: microbe, parasite or virus in culture; type: cell-based, Escherichia coli; conditions: 16 h
In short: (§1)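 MIC read-out = lowest peptide level with no bacterial proliferation. Strains diluted in MH medium to 2×10^6 CFU; peptide twofold serial dilutions in MH added 1:1 in microtiter wells.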

MDREC 1229 = assay: microbe, parasite or virus in culture; type: cell-based, Escherichia coli
In short: as §1

MDREC 1238 = type: cell-based, Escherichia coli
In short: as §1

P. aeruginosa = assay: microbe, parasite or virus in culture; type: cell-based, Pseudomonas aeruginosa
In short: as §1

MDRPA 2002 = type: cell-based, Pseudomonas aeruginosa
In short: as §1

MDRPA 2003 = type: cell-based, Pseudomonas aeruginosa
In short: as §1

MDRAB 12036 = type: cell-based, Acinetobacter baumannii
In short: as §1

MDRST 8007 = assay: Minimal inhibitory concentration (MIC), single agent; type: cell-based, Salmonella typhimurium; conditions: agent alone
In short: as §1

MDRST 8009 = type: cell-based, Salmonella typhimurium; conditions: agent alone
In short: as §1

B. subtilis = assay: microbe, parasite or virus in culture; type: cell-based, Bacillus subtilis
In short: as §1

S. epidermidis = assay: microbe, parasite or virus in culture; type: cell-based, Staphylococcus epidermidis
In short: as §1

MRSA 3114 = type: cell-based, Staphylococcus aureus; conditions: 3114
In short: as §1

MRSA 3126 = type: cell-based, Staphylococcus aureus; conditions: 3126
In short: as §1

E. coli [2] = assay: MIC of antibiotic during combined treatment with antimicrobial peptide; type: cell-based, Escherichia coli; conditions: for Antibiotic MIC, Erythromycin / Antibiotic MIC, Linezolid / Antibiotic MIC, Vancomycin: E. coli
In short: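 Antibiotic diluted in MH medium, dispensed per well with peptide; setup repeated with roles reversed; MIC read per combination.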

MDRAB 12035 = assay: as above; type: cell-based, Acinetobacter baumannii
In short: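 Antibiotic MIC came from antibiotic dilutions added to bacteria (2×10^6 CFU/ml, MH medium) already combined with peptide serially diluted 2:1 from its own MIC. Swapping the roles of the two agents gave the peptide MIC.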

[3] = peptide treatment concentration 1 μg/ml
[4] = peptide treatment concentration 2 μg/ml
[5] = peptide treatment concentration 4 μg/ml
[6] = peptide treatment concentration 6 μg/ml

## CC[C@H](C)[C@H](NC(=O)[C@H](CCCCN)NC(=O)[C@H](Cc1c[nH]c2ccccc12)NC(=O)[C@@H](N)CCCNC(=N)N)C(=O)N[C@@H](Cc1ccccc1)C(=O)N[C@@H](CCCCN)C(=O)N[C@@H](CCCCN)C(=O)N[C@H](C(=O)N[C@H](CCCCN)C(=O)N[C@@H](CCCCN)C(=O)N[C@@H](CC(C)C)C(=O)N[C@@H](CC(C)C)C(=O)N[C@@H](Cc1c[nH]cn1)C(=O)N[C@@H](CCC(=O)O)C(=O)N[C@@H](C)C(=O)N[C@@H](CCCCN)C(=O)N[C@@H](CCCCN)C(=O)N[C@@H](Cc1c[nH]c2ccccc12)C(N)=O)[C@@H](C)CC [PapMA-20, RWK IFK KIk KLL HEA KKW-NH2] (H-RWKIFKKI[dK]KLLHEAKKW-NH2; N-terminus assumed)
E. coli [1]
  Minimal inhibitory concentration MIC: 16 µg/mL (≈ 6.72 µM)
MDREC 1229
  Minimal inhibitory concentration MIC: 16 µg/mL (≈ 6.72 µM)
  Peptide MIC, peptide alone: 16 µg/mL
MDREC 1238
  Minimal inhibitory concentration MIC: 32 µg/mL (≈ 13.4 µM)
P. aeruginosa
  Minimal inhibitory concentration MIC: 64 µg/mL (≈ 26.9 µM)
MDRPA 2002
  Minimal inhibitory concentration MIC: 64 µg/mL (≈ 26.9 µM)
MDRPA 2003
  Minimal inhibitory concentration MIC: 64 µg/mL (≈ 26.9 µM)
MDRAB 12036
  Minimal inhibitory concentration MIC: 16 µg/mL (≈ 6.72 µM)
MDRST 8007
  Minimal inhibitory concentration MIC: 64 µg/mL (≈ 26.9 µM)
MDRST 8009
  Minimal inhibitory concentration MIC: 64 µg/mL (≈ 26.9 µM)
B. subtilis
  Minimal inhibitory concentration MIC: >128 µg/mL
S. epidermidis
  Minimal inhibitory concentration MIC: >128 µg/mL
MRSA 3114
  Minimal inhibitory concentration MIC: >128 µg/mL
MRSA 3126
  Minimal inhibitory concentration MIC: >128 µg/mL
E. coli [2]; E. coli and MDREC1229
  Synergistic effect of antibacterial activity with existing antibiotics compared with PapMA-1: higher level than the PapMA-1 peptide
E. coli [2]; erythromycin combined with peptide at 1 μg/ml
  Antibiotic MIC, Erythromycin: 64 µg/mL
E. coli [2]; erythromycin combined with peptide at 2 μg/ml
  Antibiotic MIC, Erythromycin: 32 µg/mL
E. coli [2]; erythromycin combined with peptide at 4 μg/ml
  Antibiotic MIC, Erythromycin: 8 µg/mL
E. coli [2]; erythromycin combined with peptide at 6 μg/ml
  Antibiotic MIC, Erythromycin: 1 µg/mL
E. coli [2]; erythromycin combined with peptide at 8 μg/ml
  Antibiotic MIC, Erythromycin: 0.5 µg/mL
E. coli [2]; erythromycin combined with peptide at 16 μg/ml
  Antibiotic MIC, Erythromycin: 0 µg/mL
E. coli [2]; erythromycin combined with peptide at 32 μg/ml
  Antibiotic MIC, Erythromycin: 0 µg/mL
E. coli [2]; erythromycin combined with peptide at 64 μg/ml
  Antibiotic MIC, Erythromycin: 0 µg/mL
E. coli [2]; linezolid combined with peptide at 1 μg/ml
  Antibiotic MIC, Linezolid: >128 µg/mL
E. coli [2]; linezolid combined with peptide at 2 μg/ml
  Antibiotic MIC, Linezolid: 64 µg/mL
E. coli [2]; linezolid combined with peptide at 4 μg/ml
  Antibiotic MIC, Linezolid: 16 µg/mL
E. coli [2]; linezolid combined with peptide at 6 μg/ml
  Antibiotic MIC, Linezolid: 8 µg/mL
E. coli [2]; linezolid combined with peptide at 8 μg/ml
  Antibiotic MIC, Linezolid: 4 µg/mL
E. coli [2]; linezolid combined with peptide at 16 μg/ml
  Antibiotic MIC, Linezolid: 0 µg/mL
E. coli [2]; linezolid combined with peptide at 32 μg/ml
  Antibiotic MIC, Linezolid: 0 µg/mL
E. coli [2]; linezolid combined with peptide at 64 μg/ml
  Antibiotic MIC, Linezolid: 0 µg/mL
E. coli [2]; vancomycin combined with peptide at 1 μg/ml
  Antibiotic MIC, Vancomycin: >128 µg/mL
E. coli [2]; vancomycin combined with peptide at 2 μg/ml
  Antibiotic MIC, Vancomycin: >128 µg/mL
E. coli [2]; vancomycin combined with peptide at 4 μg/ml
  Antibiotic MIC, Vancomycin: 64 µg/mL
E. coli [2]; vancomycin combined with peptide at 6 μg/ml
  Antibiotic MIC, Vancomycin: 16 µg/mL
E. coli [2]; vancomycin combined with peptide at 8 μg/ml
  Antibiotic MIC, Vancomycin: 8 µg/mL
E. coli [2]; vancomycin combined with peptide at 16 μg/ml
  Antibiotic MIC, Vancomycin: 0 µg/mL
E. coli [2]; vancomycin combined with peptide at 32 μg/ml
  Antibiotic MIC, Vancomycin: 0 µg/mL
E. coli [2]; vancomycin combined with peptide at 64 μg/ml
  Antibiotic MIC, Vancomycin: 0 µg/mL
MDRAB 12035; [3]
  Erythromycin MIC during combined treatment with peptide: 32 µg/mL
  Linezolid MIC during combined treatment with peptide: >128 µg/mL
  Vancomycin MIC during combined treatment with peptide: >128 µg/mL
MDRAB 12035; [4]
  Erythromycin MIC during combined treatment with peptide: 16 µg/mL
  Linezolid MIC during combined treatment with peptide: 128 µg/mL
  Vancomycin MIC during combined treatment with peptide: >128 µg/mL
MDRAB 12035; [5]
  Erythromycin MIC during combined treatment with peptide: 8 µg/mL
  Linezolid MIC during combined treatment with peptide: 32 µg/mL
  Vancomycin MIC during combined treatment with peptide: 64 µg/mL
MDRAB 12035; [6]
  Erythromycin MIC during combined treatment with peptide: 4 µg/mL
  Linezolid MIC during combined treatment with peptide: 16 µg/mL
  Vancomycin MIC during combined treatment with peptide: 16 µg/mL
